Source: article doi:10.1101/2023.03.24.534094v2 (biorxiv, 2023)
Like-named read-outs stand apart in the source and are kept apart here. Blank lines part the entries; values can stand above or below the compound they belong to.

Experiments:
Assay in all cases: biochemical
[1] = molecular target: JNK2 (Homo sapiens, UniProt P45984)
[2] = molecular target: T1, BRPF1 (Homo sapiens, UniProt P55201)
T1 sequence (P55201 1-1214): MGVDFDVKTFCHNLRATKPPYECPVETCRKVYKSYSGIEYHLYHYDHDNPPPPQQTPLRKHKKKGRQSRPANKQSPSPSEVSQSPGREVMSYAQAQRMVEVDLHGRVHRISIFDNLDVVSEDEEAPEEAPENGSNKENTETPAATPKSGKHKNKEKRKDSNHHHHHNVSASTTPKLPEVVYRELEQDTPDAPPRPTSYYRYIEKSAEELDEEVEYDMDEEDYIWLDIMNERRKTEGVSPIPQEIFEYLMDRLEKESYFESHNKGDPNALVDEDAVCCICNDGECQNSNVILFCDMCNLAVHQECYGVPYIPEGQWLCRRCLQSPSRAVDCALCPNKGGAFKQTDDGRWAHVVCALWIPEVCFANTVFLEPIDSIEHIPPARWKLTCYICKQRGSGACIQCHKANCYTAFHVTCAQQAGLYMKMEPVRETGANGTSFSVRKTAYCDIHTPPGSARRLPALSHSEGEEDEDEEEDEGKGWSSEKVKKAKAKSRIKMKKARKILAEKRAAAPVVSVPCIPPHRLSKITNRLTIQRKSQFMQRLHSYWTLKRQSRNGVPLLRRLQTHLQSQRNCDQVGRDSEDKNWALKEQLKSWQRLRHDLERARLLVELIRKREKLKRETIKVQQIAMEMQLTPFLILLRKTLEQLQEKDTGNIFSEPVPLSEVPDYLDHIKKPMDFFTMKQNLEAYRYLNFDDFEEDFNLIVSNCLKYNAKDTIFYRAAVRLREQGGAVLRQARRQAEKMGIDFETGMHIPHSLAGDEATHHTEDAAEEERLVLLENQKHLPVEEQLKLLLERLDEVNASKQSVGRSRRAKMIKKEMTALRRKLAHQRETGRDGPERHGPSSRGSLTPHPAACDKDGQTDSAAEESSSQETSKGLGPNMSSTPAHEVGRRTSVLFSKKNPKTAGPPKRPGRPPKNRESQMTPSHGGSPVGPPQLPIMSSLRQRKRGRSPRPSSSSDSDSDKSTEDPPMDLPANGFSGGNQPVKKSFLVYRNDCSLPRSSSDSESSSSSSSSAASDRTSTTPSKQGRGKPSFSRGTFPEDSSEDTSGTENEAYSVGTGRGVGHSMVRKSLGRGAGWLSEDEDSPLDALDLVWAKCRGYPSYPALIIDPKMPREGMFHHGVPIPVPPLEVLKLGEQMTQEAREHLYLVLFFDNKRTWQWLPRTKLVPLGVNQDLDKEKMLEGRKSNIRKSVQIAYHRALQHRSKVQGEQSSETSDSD

[3] = molecular target: MARK3 (Homo sapiens, UniProt P27448)
[4] = molecular target: RSK1b (Homo sapiens, UniProt Q15418)
[5] = molecular target: AAK1 (Homo sapiens, UniProt Q2M2I8)
[6] = molecular target: CHK2 (Homo sapiens, UniProt O96017)
[7] = molecular target: CLK1 (Homo sapiens, UniProt P49759)
[8] = molecular target: EpHA5 (Homo sapiens, UniProt P54756)
[9] = molecular target: MELK (Homo sapiens, UniProt Q14680)
[10] = molecular target: STLK3 (Homo sapiens, UniProt Q9UEW8)
[11] = molecular target: SRC (Homo sapiens, UniProt P12931)
[12] = molecular target: GSK3B (Homo sapiens, UniProt P49841)
[13] = molecular target: OSR1 (Homo sapiens, UniProt O95747)
[14] = molecular target: Erk2 (Homo sapiens, UniProt P28482)
[15] = molecular target: CLK3 (Homo sapiens, UniProt P49761)
[16] = molecular target: CK2a2 (Homo sapiens, UniProt P19784)

RSK1b, sequence (Q15418 whole entry): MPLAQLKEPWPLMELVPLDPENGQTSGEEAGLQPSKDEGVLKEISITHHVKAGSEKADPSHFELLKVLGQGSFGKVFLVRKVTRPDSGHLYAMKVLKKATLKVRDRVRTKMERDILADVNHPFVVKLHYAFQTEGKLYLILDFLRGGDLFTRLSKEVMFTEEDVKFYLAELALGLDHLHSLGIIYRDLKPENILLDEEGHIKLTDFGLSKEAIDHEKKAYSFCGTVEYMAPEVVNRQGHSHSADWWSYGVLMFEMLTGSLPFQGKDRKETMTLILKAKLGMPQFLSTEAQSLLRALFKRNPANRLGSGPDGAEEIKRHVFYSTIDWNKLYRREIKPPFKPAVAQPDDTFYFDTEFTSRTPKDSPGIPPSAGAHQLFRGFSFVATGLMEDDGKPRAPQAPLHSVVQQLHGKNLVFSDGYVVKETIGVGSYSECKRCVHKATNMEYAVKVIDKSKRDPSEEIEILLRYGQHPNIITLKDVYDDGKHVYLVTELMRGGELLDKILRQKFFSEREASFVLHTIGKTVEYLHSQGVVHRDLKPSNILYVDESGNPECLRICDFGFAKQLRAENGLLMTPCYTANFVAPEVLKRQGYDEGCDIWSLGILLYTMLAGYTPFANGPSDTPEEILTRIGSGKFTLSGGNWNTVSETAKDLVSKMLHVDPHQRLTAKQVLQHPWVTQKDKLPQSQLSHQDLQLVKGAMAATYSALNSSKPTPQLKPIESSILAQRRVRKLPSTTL
SRC, sequence (P12931 whole entry): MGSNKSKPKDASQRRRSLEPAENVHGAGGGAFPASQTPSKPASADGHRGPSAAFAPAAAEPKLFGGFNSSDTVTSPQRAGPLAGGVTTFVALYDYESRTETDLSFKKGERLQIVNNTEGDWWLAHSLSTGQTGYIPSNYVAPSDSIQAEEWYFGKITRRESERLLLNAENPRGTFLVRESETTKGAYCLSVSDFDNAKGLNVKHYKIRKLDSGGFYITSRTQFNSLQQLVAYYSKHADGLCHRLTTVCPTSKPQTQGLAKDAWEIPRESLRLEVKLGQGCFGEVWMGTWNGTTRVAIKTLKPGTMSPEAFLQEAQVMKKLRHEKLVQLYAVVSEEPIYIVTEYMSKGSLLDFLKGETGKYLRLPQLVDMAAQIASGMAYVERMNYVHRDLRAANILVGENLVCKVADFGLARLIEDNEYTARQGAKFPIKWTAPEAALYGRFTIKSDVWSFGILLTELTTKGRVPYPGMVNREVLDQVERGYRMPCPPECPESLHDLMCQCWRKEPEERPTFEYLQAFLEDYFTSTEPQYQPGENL
Erk2, sequence (P28482 whole entry): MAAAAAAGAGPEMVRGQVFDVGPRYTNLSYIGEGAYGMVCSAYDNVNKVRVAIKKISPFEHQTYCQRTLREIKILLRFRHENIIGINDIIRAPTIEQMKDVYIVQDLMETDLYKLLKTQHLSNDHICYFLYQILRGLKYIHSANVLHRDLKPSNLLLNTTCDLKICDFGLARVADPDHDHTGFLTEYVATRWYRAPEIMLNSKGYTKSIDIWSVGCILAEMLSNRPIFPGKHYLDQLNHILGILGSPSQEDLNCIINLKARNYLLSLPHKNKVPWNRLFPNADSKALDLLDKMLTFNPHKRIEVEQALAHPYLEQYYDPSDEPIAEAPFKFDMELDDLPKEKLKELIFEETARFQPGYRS
JNK2, sequence (P45984 whole entry): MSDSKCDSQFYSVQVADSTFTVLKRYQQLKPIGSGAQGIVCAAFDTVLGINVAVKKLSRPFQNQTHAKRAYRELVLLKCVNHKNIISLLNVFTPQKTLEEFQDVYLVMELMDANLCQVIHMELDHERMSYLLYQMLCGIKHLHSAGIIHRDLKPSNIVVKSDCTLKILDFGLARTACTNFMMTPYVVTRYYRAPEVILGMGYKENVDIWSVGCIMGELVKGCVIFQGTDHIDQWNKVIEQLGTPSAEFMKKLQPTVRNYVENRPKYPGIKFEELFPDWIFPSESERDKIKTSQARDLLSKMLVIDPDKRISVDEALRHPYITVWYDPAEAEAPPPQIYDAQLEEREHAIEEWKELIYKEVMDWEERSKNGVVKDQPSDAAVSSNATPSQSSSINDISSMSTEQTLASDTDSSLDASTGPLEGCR
AAK1, sequence (Q2M2I8 whole entry): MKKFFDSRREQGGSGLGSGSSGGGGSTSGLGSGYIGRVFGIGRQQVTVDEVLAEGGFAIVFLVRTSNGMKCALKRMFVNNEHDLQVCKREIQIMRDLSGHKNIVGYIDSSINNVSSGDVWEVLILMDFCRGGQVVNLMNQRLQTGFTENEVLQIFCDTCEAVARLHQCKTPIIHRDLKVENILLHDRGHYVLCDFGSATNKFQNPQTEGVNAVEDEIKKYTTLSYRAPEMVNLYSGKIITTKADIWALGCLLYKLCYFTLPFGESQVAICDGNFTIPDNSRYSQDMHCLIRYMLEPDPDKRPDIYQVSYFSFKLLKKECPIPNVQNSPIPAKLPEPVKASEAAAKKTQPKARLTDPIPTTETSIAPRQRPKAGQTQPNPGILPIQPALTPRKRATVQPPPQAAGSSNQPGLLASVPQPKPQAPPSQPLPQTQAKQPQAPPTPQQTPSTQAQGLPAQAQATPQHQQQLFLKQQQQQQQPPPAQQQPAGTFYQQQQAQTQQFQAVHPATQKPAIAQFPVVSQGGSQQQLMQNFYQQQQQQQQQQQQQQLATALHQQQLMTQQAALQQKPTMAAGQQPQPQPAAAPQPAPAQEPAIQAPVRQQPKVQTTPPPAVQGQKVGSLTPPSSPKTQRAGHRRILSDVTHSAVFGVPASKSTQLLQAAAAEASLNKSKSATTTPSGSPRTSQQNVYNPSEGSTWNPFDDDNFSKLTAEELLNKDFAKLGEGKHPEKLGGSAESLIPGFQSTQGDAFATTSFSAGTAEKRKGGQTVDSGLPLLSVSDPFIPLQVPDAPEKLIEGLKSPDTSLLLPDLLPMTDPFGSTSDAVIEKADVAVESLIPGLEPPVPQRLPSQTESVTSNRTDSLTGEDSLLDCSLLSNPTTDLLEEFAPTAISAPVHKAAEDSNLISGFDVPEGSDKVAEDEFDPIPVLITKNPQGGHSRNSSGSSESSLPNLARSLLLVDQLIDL
CLK1, sequence (P49759 whole entry): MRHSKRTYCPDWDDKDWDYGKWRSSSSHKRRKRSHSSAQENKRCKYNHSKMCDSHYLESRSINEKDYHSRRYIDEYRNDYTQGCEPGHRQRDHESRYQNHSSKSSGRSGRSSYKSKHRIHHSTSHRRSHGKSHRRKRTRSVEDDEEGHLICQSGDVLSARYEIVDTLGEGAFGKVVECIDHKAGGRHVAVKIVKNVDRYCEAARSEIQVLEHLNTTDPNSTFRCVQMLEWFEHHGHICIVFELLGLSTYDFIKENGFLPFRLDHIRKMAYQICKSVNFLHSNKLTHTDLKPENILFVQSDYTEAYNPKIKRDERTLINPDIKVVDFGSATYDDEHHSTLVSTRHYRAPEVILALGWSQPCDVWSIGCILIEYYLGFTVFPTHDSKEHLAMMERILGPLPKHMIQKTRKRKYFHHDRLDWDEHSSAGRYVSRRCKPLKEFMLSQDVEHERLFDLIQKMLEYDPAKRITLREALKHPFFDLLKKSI
EpHA5, sequence (P54756 whole entry): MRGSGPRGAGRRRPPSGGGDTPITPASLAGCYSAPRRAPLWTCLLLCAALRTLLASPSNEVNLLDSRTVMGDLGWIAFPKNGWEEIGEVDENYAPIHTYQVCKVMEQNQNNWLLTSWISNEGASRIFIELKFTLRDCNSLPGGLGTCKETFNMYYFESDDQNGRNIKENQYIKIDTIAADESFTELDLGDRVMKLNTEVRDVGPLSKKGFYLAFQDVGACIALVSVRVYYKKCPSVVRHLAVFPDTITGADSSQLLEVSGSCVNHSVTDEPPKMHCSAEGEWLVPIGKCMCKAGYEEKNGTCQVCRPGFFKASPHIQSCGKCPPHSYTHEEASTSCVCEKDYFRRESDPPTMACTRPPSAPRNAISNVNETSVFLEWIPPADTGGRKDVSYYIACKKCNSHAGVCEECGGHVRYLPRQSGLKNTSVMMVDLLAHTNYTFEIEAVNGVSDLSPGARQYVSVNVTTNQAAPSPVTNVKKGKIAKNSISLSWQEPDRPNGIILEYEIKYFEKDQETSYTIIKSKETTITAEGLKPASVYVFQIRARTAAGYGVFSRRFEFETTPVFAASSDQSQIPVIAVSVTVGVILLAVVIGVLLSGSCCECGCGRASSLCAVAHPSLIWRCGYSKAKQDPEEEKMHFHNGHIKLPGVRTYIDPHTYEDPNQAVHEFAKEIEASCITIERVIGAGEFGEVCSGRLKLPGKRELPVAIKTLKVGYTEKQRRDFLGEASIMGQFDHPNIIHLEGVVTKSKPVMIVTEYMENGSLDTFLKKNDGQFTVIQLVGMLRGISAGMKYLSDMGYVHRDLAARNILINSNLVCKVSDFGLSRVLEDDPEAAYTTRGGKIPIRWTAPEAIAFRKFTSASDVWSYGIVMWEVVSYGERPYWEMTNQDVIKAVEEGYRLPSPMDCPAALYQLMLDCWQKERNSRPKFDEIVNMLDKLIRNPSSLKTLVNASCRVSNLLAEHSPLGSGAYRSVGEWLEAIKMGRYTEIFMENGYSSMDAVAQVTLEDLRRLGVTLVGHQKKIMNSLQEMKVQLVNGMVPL
GSK3B, sequence (P49841 whole entry): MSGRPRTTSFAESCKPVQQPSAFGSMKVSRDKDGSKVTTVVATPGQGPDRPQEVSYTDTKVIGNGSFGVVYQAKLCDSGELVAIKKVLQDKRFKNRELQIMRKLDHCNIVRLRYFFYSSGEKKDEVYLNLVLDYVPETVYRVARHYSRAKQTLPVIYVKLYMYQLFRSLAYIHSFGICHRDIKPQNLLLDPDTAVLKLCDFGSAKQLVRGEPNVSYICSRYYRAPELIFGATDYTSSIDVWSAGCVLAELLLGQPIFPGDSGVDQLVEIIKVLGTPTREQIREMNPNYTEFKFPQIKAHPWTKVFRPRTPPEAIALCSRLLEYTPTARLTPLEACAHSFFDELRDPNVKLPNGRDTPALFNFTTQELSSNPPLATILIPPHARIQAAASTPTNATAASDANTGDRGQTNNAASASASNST

Structure (SMILES): CNc1ncc2cc(-c3cc(Cl)ccc3Cl)c(=O)n(CCCCN)c2n1 [compound 8, 8-(4-Aminobutyl)-6-(2,5-dichlorophenyl)-2-(methylamino)pyrido[2,3-d]pyrimidin-7(8H)-one]
ΔTm at 10 µM ([1]; read-out: dTm 8): 1.2 °C | ΔTm at 10 µM ([2]; read-out: dTm 8): -0.5 °C | ΔTm at 10 µM ([3]; read-out: dTm 8): 2.7 °C | ΔTm at 10 µM ([4]; read-out: dTm 8): 6.9 °C | ΔTm at 10 µM ([5]; read-out: dTm 8): 0.8 °C | ΔTm at 10 µM ([6]; read-out: dTm 8): 0.4 °C | ΔTm at 10 µM ([7]; read-out: dTm 8): 0.6 °C | ΔTm at 10 µM ([8]; read-out: dTm 8): 5.4 °C | ΔTm at 10 µM ([9]; read-out: dTm 8): 4.6 °C | ΔTm at 10 µM ([10]; read-out: dTm 8): 0.2 °C | ΔTm at 10 µM ([11]; read-out: dTm 8): 0.6 °C | ΔTm at 10 µM ([12]; read-out: dTm 8): 1 °C | ΔTm at 10 µM ([13]; read-out: dTm 8): 0.3 °C | ΔTm at 10 µM ([14]; read-out: dTm 8): 0.1 °C | ΔTm at 10 µM ([15]; read-out: dTm 8): 0.4 °C | ΔTm at 10 µM ([16]; read-out: dTm 8): 0 °C

Structure (SMILES): CNc1ncc2cc(-c3cc(C(F)(F)F)ccc3Cl)c(=O)n(CCCCN)c2n1 [compound 9, 8-(4-Aminobutyl)-6-(2-chloro-5-(trifluoromethyl)phenyl)-2-(methylamino)pyrido[2,3-d]pyrimidin-7(8H)-one]
ΔTm at 10 µM ([1]; read-out: dTm 9): 1 °C | ΔTm at 10 µM ([2]; read-out: dTm 9): -0.4 °C | ΔTm at 10 µM ([3]; read-out: dTm 9): 0.7 °C | ΔTm at 10 µM ([4]; read-out: dTm 9): 4.5 °C | ΔTm at 10 µM ([5]; read-out: dTm 9): 0 °C | ΔTm at 10 µM ([6]; read-out: dTm 9): 0.5 °C | ΔTm at 10 µM ([7]; read-out: dTm 9): 0.4 °C | ΔTm at 10 µM ([8]; read-out: dTm 9): 2.6 °C | ΔTm at 10 µM ([9]; read-out: dTm 9): 1.6 °C | ΔTm at 10 µM ([10]; read-out: dTm 9): 0.3 °C | ΔTm at 10 µM ([11]; read-out: dTm 9): 0 °C | ΔTm at 10 µM ([12]; read-out: dTm 9): 0.8 °C | ΔTm at 10 µM ([13]; read-out: dTm 9): 0.3 °C | ΔTm at 10 µM ([14]; read-out: dTm 9): 0 °C | ΔTm at 10 µM ([15]; read-out: dTm 9): 0.4 °C | ΔTm at 10 µM ([16]; read-out: dTm 9): 0 °C

Structure (SMILES): CNc1ncc2cc(-c3cc(Cl)ccc3Br)c(=O)n(CCCCN)c2n1 [compound 10, 8-(4-Aminobutyl)-6-(2-bromo-5-chlorophenyl)-2-(methylamino)pyrido[2,3-d]pyrimidin-7(8H)-one]
ΔTm at 10 µM ([1]; read-out: dTm 10): 0.9 °C | ΔTm at 10 µM ([2]; read-out: dTm 10): -0.3 °C | ΔTm at 10 µM ([3]; read-out: dTm 10): 3.7 °C | ΔTm at 10 µM ([4]; read-out: dTm 10): 6.2 °C | ΔTm at 10 µM ([5]; read-out: dTm 10): 0.5 °C | ΔTm at 10 µM ([6]; read-out: dTm 10): 0.2 °C | ΔTm at 10 µM ([7]; read-out: dTm 10): 0.4 °C | ΔTm at 10 µM ([8]; read-out: dTm 10): 5.5 °C | ΔTm at 10 µM ([9]; read-out: dTm 10): 4.3 °C | ΔTm at 10 µM ([10]; read-out: dTm 10): 0.3 °C | ΔTm at 10 µM ([11]; read-out: dTm 10): 0.6 °C | ΔTm at 10 µM ([12]; read-out: dTm 10): 0.8 °C | ΔTm at 10 µM ([13]; read-out: dTm 10): -0.2 °C | ΔTm at 10 µM ([14]; read-out: dTm 10): 0.1 °C | ΔTm at 10 µM ([15]; read-out: dTm 10): 0.4 °C | ΔTm at 10 µM ([16]; read-out: dTm 10): 0.2 °C

The next lines start with the values.

ΔTm at 10 µM ([1]; read-out: dTm 11): 1.2 °C | ΔTm at 10 µM ([2]; read-out: dTm 11): -0.7 °C | ΔTm at 10 µM ([3]; read-out: dTm 11): 3.6 °C | ΔTm at 10 µM ([4]; read-out: dTm 11): 5.8 °C | ΔTm at 10 µM ([5]; read-out: dTm 11): 0.4 °C | ΔTm at 10 µM ([6]; read-out: dTm 11): 0.4 °C | ΔTm at 10 µM ([7]; read-out: dTm 11): 0.4 °C | ΔTm at 10 µM ([8]; read-out: dTm 11): 4.7 °C | ΔTm at 10 µM ([9]; read-out: dTm 11): 4.2 °C | ΔTm at 10 µM ([10]; read-out: dTm 11): 0.3 °C | ΔTm at 10 µM ([11]; read-out: dTm 11): 0.4 °C | ΔTm at 10 µM ([12]; read-out: dTm 11): 0.8 °C | ΔTm at 10 µM ([13]; read-out: dTm 11): 0.4 °C | ΔTm at 10 µM ([14]; read-out: dTm 11): 0.1 °C | ΔTm at 10 µM ([15]; read-out: dTm 11): 0.4 °C | ΔTm at 10 µM ([16]; read-out: dTm 11): 0.1 °C
Structure (SMILES): CNc1ncc2cc(-c3cc(Br)ccc3Br)c(=O)n(CCCCN)c2n1 [compound 11, 8-(4-Aminobutyl)-6-(2,5-dibromophenyl)-2-(methylamino)pyrido[2,3-d]pyrimidin-7(8H)-one]

ΔTm at 10 µM ([1]; read-out: dTm 12): 0.2 °C | ΔTm at 10 µM ([2]; read-out: dTm 12): -1.5 °C | ΔTm at 10 µM ([3]; read-out: dTm 12): 5.3 °C | ΔTm at 10 µM ([4]; read-out: dTm 12): -0.2 °C | ΔTm at 10 µM ([5]; read-out: dTm 12): 0.5 °C | ΔTm at 10 µM ([6]; read-out: dTm 12): 3.3 °C | ΔTm at 10 µM ([7]; read-out: dTm 12): -0.1 °C | ΔTm at 10 µM ([8]; read-out: dTm 12): 3.2 °C | ΔTm at 10 µM ([9]; read-out: dTm 12): 6.1 °C | ΔTm at 10 µM ([10]; read-out: dTm 12): 12.1 °C | ΔTm at 10 µM ([11]; read-out: dTm 12): 1.2 °C | ΔTm at 10 µM ([12]; read-out: dTm 12): 1.7 °C | ΔTm at 10 µM ([13]; read-out: dTm 12): -0.2 °C | ΔTm at 10 µM ([14]; read-out: dTm 12): -1.8 °C | ΔTm at 10 µM ([15]; read-out: dTm 12): -0.3 °C | ΔTm at 10 µM ([16]; read-out: dTm 12): -1 °C
Structure (SMILES): CNc1ncc2cc(-c3cc(F)c(-c4cccc(C)n4)cc3F)c(=O)n(CCCCN)c2n1 [compound 12, 8-(4-Aminobutyl)-6-(2,5-difluoro-4-(6-methylpyridin-2-yl)phenyl)-2-(methylamino)pyrido[2,3-d]pyrimidin-7(8H)-one]
